Laboratory results: ChEMBL document CHEMBL1146442, “Kawaguchipeptin B, an antibacterial cyclic undecapeptide from the cyanobacterium Microcystis aeruginosa” (1997)
In brackets after ≈: the same amount, converted by molar mass. Residues, ends and D or L forms follow the SMILES beside them.

Tested on: Staphylococcus aureus
Assay: Antimicrobial activity against Staphylococcus aureus
Type: functional

Structure (SMILES)	MIC
CC(C)C[C@@H]1NC(=O)[C@H](Cc2c[nH]c3ccccc23)NC(=O)[C@@H]2CCCN2C(=O)[C@H]([C@@H](C)O)NC(=O)[C@H](CO)NC(=O)[C@H](Cc2c[nH]c3ccccc23)NC(=O)[C@H](CC(N)=O)NC(=O)[C@H](CC(N)=O)NC(=O)[C@H](CC(=O)O)NC(=O)CNC(=O)[C@H](CC(N)=O)NC1=O [KAWAGUCHIPEPTIN B] (HELM PEPTIDE1{D.N.N.W.S.T.P.W.L.N.G}$PEPTIDE1,PEPTIDE1,1:R1-11:R2$$$V2.0)	1 mg/L (≈ 0.778 µM)
CC(C)=CC[C@@]12C[C@H]3C(=O)N[C@@H](CO)C(=O)N[C@@H]([C@@H](C)O)C(=O)N4CCC[C@H]4C(=O)N4[C@@H](C[C@@]5(CC=C(C)C)c6ccccc6N[C@@H]45)C(=O)N[C@H](CC(C)C)C(=O)N[C@@H](CC(N)=O)C(=O)NCC(=O)N[C@@H](CC(=O)O)C(=O)N[C@@H](CC(N)=O)C(=O)N[C@@H](CC(N)=O)C(=O)N3[C@H]1Nc1ccccc12 [KAWAGUCHIPEPTIN A]	1 mg/L (≈ 0.703 µM)
